Twelve molecules from US20090318423A1, “Ion Channel Modulators & Uses Thereof” (LECTUS THERAPEUTICS LIMITED, priority 2006, published 2009) can be followed below.

In the assay the target is T1, Kv1.1 alpha subunit T1 domain binding to Kvbeta1 subunits (Rattus norvegicus, UniProt P63144).
T1 construct: expression of Kv1.1 alpha subunit T1 domains in E. coli; His; made in house; host or cells: E. coli (cleared lysates)
T1 sequence (P63144 1-401): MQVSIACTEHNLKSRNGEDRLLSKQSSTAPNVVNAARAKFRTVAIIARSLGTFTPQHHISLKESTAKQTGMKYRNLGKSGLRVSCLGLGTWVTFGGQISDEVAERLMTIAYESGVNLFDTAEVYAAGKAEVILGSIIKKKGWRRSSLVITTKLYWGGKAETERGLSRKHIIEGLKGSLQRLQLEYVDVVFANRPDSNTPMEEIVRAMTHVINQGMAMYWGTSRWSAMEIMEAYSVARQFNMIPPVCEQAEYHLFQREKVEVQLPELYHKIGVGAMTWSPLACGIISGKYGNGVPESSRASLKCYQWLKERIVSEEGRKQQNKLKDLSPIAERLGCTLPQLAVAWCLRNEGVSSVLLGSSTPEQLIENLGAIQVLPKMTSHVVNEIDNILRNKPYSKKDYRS
Description: Kv1.x T1 / Kvbeta subunit protein-protein interaction assay (ELISA). The conditions noted are these: His-/FLAG-tagged Kv1.1 T1 domain lysate; biotin-tagged Kvbeta1 immobilised on streptavidin plates; anti-FLAG/HRP ELISA detection; read-out: IC50 for inhibition of Kv1.1 alpha subunit T1 binding to Kvbeta1 subunits. How it is done: Compounds of Examples 3, 13-15 and 18-22 and 24-26 were examined for their ability to inhibit the interaction between Kv1.x channels and Kvbeta subunits using a protein-protein interaction assay.
Cloning of rat His- and biotin-tagged Kvbeta1 subunit cDNA, expression of Kvbeta1 subunits in E. coli and lysis of E. coli containing Kvbeta1 subunits were carried out as previously described (Kozlowski et al., patent application WO03078464).
Cloning of His- and FLAG-tagged Kv1.1 alpha subunit T1 domain cDNA, expression of Kv1.1 alpha subunit T1 domains in E. coli and lysis of E. coli containing Kv1.1 alpha subunit T1 domains were carried out as previously described (Kozlowski et al., patent application WO03078464).
To 96-well streptavidin coated microtitre plates, 100 μl of optimized concentrations of Kvbeta1 subunit cleared lysates (typically 1 in 10 dilutions in PBS-Tween) were added to each well. Plates were incubated at room temperature for 1 hour prior to use. Each well was then washed 3 times with 300 μl of PBS-Tween. Following the final wash, 80 μl of PBS-Tween was added to each well.
The test compounds (dissolved in a suitable vehicle) were added to the wells of a prepared 96-well microliter plate to achieve a range of concentrations to maintain a final assay volume of 100 μl. Plates were incubated for 30 minutes at room temperature.
After incubation with test compounds, 100 μl of Kv1.1 alpha subunit T1 domain cleared lysate (diluted 1 in 10 in PBS-Tween) was added to each well and incubated for 60 minutes at room temperature on a shaker. Unbound Kv1.1 alpha subunit T1 domain was removed by washing 3 times in 300 μl of PBS-Tween. Bound Kv1.1 alpha subunit T1 domain was estimated by using appropriately diluted mouse anti-FLAG antibody and anti-mouse IgG secondary antibody HRP conjugate using standard ELISA procedures. HRP was detected as previously described (Kozlowski et al., patent application WO03078464).
Data were analyzed using standard software packages. The test compounds were examined for their ability to inhibit the binding of Kv1.1 alpha subunit T1 domain to Kvbeta1 subunits to determine inhibition as a percentage of maximal binding in the absence of any test compound. Results are presented as the half maximal inhibitory concentration (IC50) for inhibition of Kv1.1 alpha subunit T1 binding to Kvbeta1 subunits.
Take `Cc1ccc(S(=O)(=O)NC(=O)Nc2ccc3c(c2)CCN(C(=O)NS(=O)(=O)c2ccc(C)cc2)C3)cc1` [Example 13, N-[(4-methylphenyl)sulfonyl]-6-({[(4-methylphenyl)sulfonyl]-carbamoyl}amino)-3,4-dihydroisoquinoline-2(1H)-carboxamide]: the IC50 – broadly, the point on the concentration scale where inhibition reaches its midpoint – was 30 µM.

Take `Cc1ccc(S(=O)(=O)NC(=O)Nc2ccc3c(c2)CN(C(=O)NS(=O)(=O)c2ccc(C)cc2)C3)cc1` [Example 14, N-[(4-methylphenyl)sulfonyl]-5-[({[(4-methylphenyl)sulfonyl]amino}carbonyl)amino]-1,3-dihydro-2H-isoindole-2-carboxamide]: the IC50 is 16 µM. Turning to `Cc1ccc(S(=O)(=O)NC(=O)Nc2ccc3c(c2)CCN(C(=O)NS(=O)(=O)c2ccc(C)cc2)CC3)cc1` [Example 15, N-[(4-Methylphenyl)sulfonyl]-7-({[(4-methylphenyl)sulfonyl]carbamoyl}amino)-1,2,4,5-tetrahydro-3H-3-benzazepine-3-carboxamide], the IC50 was 59 µM. For `Cc1cccc(S(=O)(=O)NC(=O)Nc2ccc3c(c2)CCN(C(=O)NS(=O)(=O)c2cccc(C)c2)CC3)c1` [Example 17, N-[(3-Methylphenyl)sulfonyl]-7-({[(3-methylphenyl)sulfonyl]carbamoyl}amino)-1,2,4,5-tetrahydro-3H-3-benzazepine-3-carboxamide], the half-inhibitory concentration (IC50) came out at 47 µM.

`O=C(Nc1ccc2c(c1)CCN(C(=O)NS(=O)(=O)c1ccccc1Cl)CC2)NS(=O)(=O)c1ccccc1Cl` [Example 18, N-[(2-Chlorophenyl)sulfonyl]-7-({[(2-chlorophenyl)sulfonyl]carbamoyl}amino)-1,2,4,5-tetrahydro-3H-3-benzazepine-3-carboxamide]: the IC50 was found to be 181 µM. For `O=C(Nc1ccc2c(c1)CCN(C(=O)NS(=O)(=O)c1ccc(Cl)cc1)CC2)NS(=O)(=O)c1ccc(Cl)cc1` [Example 19, N-[(4-Chlorophenyl)sulfonyl]-7-({[(4-chlorophenyl)sulfonyl]carbamoyl}amino)-1,2,4,5-tetrahydro-3H-3-benzazepine-3-carboxamide], the IC50 was 51 µM. The figure for `O=C(Nc1ccc2c(c1)CCN(C(=O)NS(=O)(=O)c1ccc(F)cc1)CC2)NS(=O)(=O)c1ccc(F)cc1` [Example 20, N-[(4-Fluorophenyl)sulfonyl]-7-({[(4-fluorophenyl)sulfonyl]carbamoyl}amino)-1,2,4,5-tetrahydro-3H-3-benzazepine-3-carboxamide] is 191 µM. For `COc1ccc(S(=O)(=O)NC(=O)Nc2ccc3c(c2)CCN(C(=O)NS(=O)(=O)c2ccc(OC)cc2)CC3)cc1` [Example 21, N-[(4-Methoxyphenyl)sulfonyl]-7-({[(4-methoxyphenyl)sulfonyl]-carbamoyl}amino)-1,2,4,5-tetrahydro-3H-3-benzazepine-3-carboxamide], the IC50 was found to be 38 µM. Regarding `CC(C)(C)c1ccc(S(=O)(=O)NC(=O)Nc2ccc3c(c2)CCN(C(=O)NS(=O)(=O)c2ccc(C(C)(C)C)cc2)CC3)cc1` [Example 22, N-[(4-tert-Butylphenyl)sulfonyl]-7-({[(4-tert-butylphenyl)sulfonyl]carbamoyl}-amino)-1,2,4,5-tetrahydro-3H-3-benzazepine-3-carboxamide], the IC50 was determined as 41 µM. Regarding `Cc1ccc(S(=O)(=O)NC(=O)N2CCc3ccc(NS(=O)(=O)c4ccc(C)cc4)cc3CC2)cc1` [Example 24, N-[(4-Methylphenyl)sulfonyl]-7-([(4-methylphenyl)sulfonyl]amino)-1,2,4,5-tetrahydro-3H-3-benzazepine-3-carboxamide], the IC50 stood at 81 µM. `Cc1ccc(S(=O)(=O)NC(=O)N2CCc3ccc(NS(=O)(=O)c4ccc(-c5ccccc5)cc4)cc3CC2)cc1` [Example 25, N-[(4-Methylphenyl)sulfonyl]-7-([(4-biphenyl)sulfonyl]amino)-1,2,4,5-tetrahydro-3H-3-benzazepine-3-carboxamide]: the 50% inhibitory concentration (IC50) is 88 µM.

Regarding “N-benzylaminocarbonyl-7-[({[(4-methylphenyl)sulfonyl]amino}carbonyl)amino]-1,2,4,5-tetrahydro-3H-3-benzazepine-3-carboxamide [Example 3]”, the IC50 was determined as 50 µM.
